Measured values as given in the supplement of paper PMC10307832.

Experiments:
Assay in all cases: relative viability (nuclei count vs DMSO), 5 days (fraction); higher = more cells survive
[1] = compound: O=C(NCCCNc1nc(Nc2cccc(NC(=O)N3CCCC3)c2)ncc1I)c1cccs1 [BX 795] + CC(C)C[C@H](NC(=O)[C@H](Cc1ccccc1)NC(=O)c1cnccn1)B(O)O [Bortezomib] (partner 0.002 µM)
Summary of the method: (§1)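 The day after seeding in 1536-well plates, lung cancer cell lines were treated by pin tool with a single drug, or with a fixed anchor-drug dose together with five library-drug doses (not always all listed) in √10 steps. After 5 days, a combined fix-and-stain solution (final 0.05% Triton X-100, 1% formaldehyde, 1 ug/ml Hoechst) was added. Nuclei counted on 4× images gave relative viability as treated counts over vehicle counts, reported as the median of duplicate plates.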

[2] = compound: O=C(NCCCNc1nc(Nc2cccc(NC(=O)N3CCCC3)c2)ncc1I)c1cccs1 [BX 795] + CCNC(=O)c1noc(-c2cc(C(C)C)c(O)cc2O)c1-c1ccc(CN2CCOCC2)cc1 [Luminespib] (partner 0.01 µM)
Summary of the method: as §1

[3] = compound: O=C(NCCCNc1nc(Nc2cccc(NC(=O)N3CCCC3)c2)ncc1I)c1cccs1 [BX 795] + COc1cccc2cc(-c3nc([C@H]4CC[C@H](C(=O)O)CC4)n4ncnc(N)c34)[nH]c12 [OSI-027] (partner 0.5 µM)
Summary of the method: as §1

[4] = compound: O=C(NCCCNc1nc(Nc2cccc(NC(=O)N3CCCC3)c2)ncc1I)c1cccs1 [BX 795] + CS(=O)(=O)CCNCc1ccc(-c2ccc3ncnc(Nc4ccc(OCc5cccc(F)c5)c(Cl)c4)c3c2)o1 [Lapatinib] (partner 2 µM)
Summary of the method: as §1

[5] = compound: O=C(NCCCNc1nc(Nc2cccc(NC(=O)N3CCCC3)c2)ncc1I)c1cccs1 [BX 795] + Cc1nc(NC(=O)N2CCC[C@H]2C(N)=O)sc1-c1ccnc(C(C)(C)C(F)(F)F)c1 [Alpelisib] (partner 2 µM)
Summary of the method: as §1

Row | Cell Line | relative viability ([1]; first compound 0.04 µM) | relative viability ([1]; first compound 0.1265 µM) | relative viability ([1]; first compound 0.4 µM) | relative viability ([1]; first compound 1.265 µM) | relative viability ([2]; first compound 0.04 µM) | relative viability ([2]; first compound 0.1265 µM) | relative viability ([2]; first compound 0.4 µM) | relative viability ([2]; first compound 1.265 µM) | relative viability ([3]; first compound 0.04 µM) | relative viability ([3]; first compound 0.1265 µM) | relative viability ([3]; first compound 0.4 µM) | relative viability ([3]; first compound 1.265 µM) | relative viability ([4]; first compound 0.04 µM) | relative viability ([4]; first compound 0.1265 µM) | relative viability ([4]; first compound 0.4 µM) | relative viability ([4]; first compound 1.265 µM) | relative viability ([5]; first compound 0.04 µM) | relative viability ([5]; first compound 0.1265 µM) | relative viability ([5]; first compound 0.4 µM) | relative viability ([5]; first compound 1.265 µM)
1 | NCI-H1666 | 0.653 | 0.806 | 0.913 | 0.688 | 1 | 1.04 | 1.07 | 0.893 | 0.859 | 0.876 | 0.993 | 0.803 | 0.858 | 0.653 | 0.695 | 0.656 | 1.07 | 1.11 | 1.01 | 0.799
2 | NCI-H727 | 1.05 | 0.962 | 0.926 | 0.739 | 0.345 | 0.257 | 0.29 | 0.389 | 0.761 | 0.635 | 0.537 | 0.557 | 0.737 | 1.01 | 0.735 | 0.637 | 0.577 | 0.763 | 0.583 | 0.376
3 | RERF-LC-KJ | 1.09 | 1.23 | 1.14 | 1.02 | 1.41 | 1.27 | 1.29 | 0.753 | 0.62 | 0.636 | 0.591 | 0.416 | 0.865 | 0.764 | 0.886 | 0.792 | 0.73 | 0.938 | 0.818 | 0.742
4 | ABC-1 | 0.392 | 0.299 | 0.332 | 0.291 | 0.445 | 0.381 | 0.334 | 0.283 | 0.577 | 0.512 | 0.459 | 0.33 | 1.17 | 1.58 | 1.14 | 0.917 | 1.17 | 1.25 | 0.911 | 0.764
5 | PC-3 [JPC-3] | 0.768 | 0.822 | 0.86 | 0.861 | 0.67 | 0.628 | 0.774 | 0.698 | 0.813 | 0.81 | 0.829 | 0.72 | 0.451 | 0.449 | 0.447 | 0.453 | 1.02 | 1.03 | 1.15 | 1.02
6 | PC-14 | 0.866 | 0.978 | 0.875 | 0.582 | 0.138 | 0.113 | 0.138 | 0.117 | 0.738 | 0.968 | 0.572 | 0.475 | 0.284 | 0.35 | 0.271 | 0.203 | 0.955 | 0.939 | 0.918 | 0.813
7 | COR-L 105 | 0.586 | 0.577 | 0.613 | 0.327 | 0.879 | 0.835 | 0.788 | 0.849 | 0.659 | 0.665 | 0.582 | 0.466 | 0.354 | 0.334 | 0.308 | 0.293 | 1.08 | 0.84 | 0.745 | 0.412
8 | NCI-H1793 | – | – | – | – | 0.153 | 0.137 | 0.168 | 0.182 | 0.34 | 0.292 | 0.329 | 0.241 | 0.534 | 0.682 | 0.875 | 0.785 | 0.675 | 0.775 | 0.647 | 0.613
9 | NCI-H358 | – | – | – | – | 0.471 | 0.325 | 0.635 | 0.218 | 0.761 | 0.796 | 0.666 | 0.513 | 0.455 | 0.376 | 0.429 | 0.296 | 0.95 | 0.642 | 0.822 | 0.281
10 | LCLC-103H | 1 | 1.1 | 1.15 | 0.911 | 0.941 | 0.84 | 1.06 | 0.737 | 0.476 | 0.528 | 0.488 | 0.501 | – | – | – | – | 0.944 | 1.1 | 1.05 | 1.01
11 | NCI-H1395 | – | – | – | – | 0.641 | 0.634 | 0.471 | 0.555 | 0.635 | 0.686 | 0.482 | 0.498 | 0.815 | 0.819 | 0.595 | 0.948 | 1.3 | 0.956 | 0.663 | 0.809
12 | HCC-366 | 1.08 | 1.1 | 0.866 | 1.09 | – | – | – | – | 1.08 | 0.881 | 0.644 | 0.444 | 0.834 | 1.11 | 0.858 | 1.12 | 0.462 | 0.432 | 0.291 | 0.113
13 | HCC-78 | 0.735 | 0.487 | 0.438 | 0.41 | – | – | – | – | 0.363 | 0.369 | 0.393 | 0.363 | 0.93 | 0.585 | 0.604 | 0.732 | 0.406 | 0.337 | 0.39 | 0.303
14 | NCI-H1650 | 0.219 | 0.2 | 0.189 | 0.193 | 0.212 | 0.191 | 0.206 | 0.189 | 0.687 | 0.703 | 0.53 | 0.414 | 0.938 | 0.737 | 0.671 | 0.521 | – | – | – | –
15 | NCI-H1944 | – | – | – | – | 0.739 | 0.729 | 0.758 | 0.595 | 0.51 | 0.459 | 0.488 | 0.381 | 0.903 | 0.781 | 0.879 | 0.642 | 0.959 | 0.806 | 0.893 | 0.754
16 | IA-LM | 0.655 | 0.841 | 0.974 | 0.54 | – | – | – | – | – | – | – | – | 0.94 | 0.994 | 1.5 | 0.544 | 0.844 | 0.636 | 0.614 | 0.666
17 | ChaGo-K-1 | 1.02 | 0.916 | 0.977 | 0.91 | 0.503 | 0.523 | 0.602 | 0.492 | 0.632 | 0.553 | 0.548 | 0.432 | – | – | – | – | – | – | – | –
18 | A549 | – | – | – | – | – | – | – | – | – | – | – | – | 0.999 | 0.88 | 1 | 0.146 | 0.761 | 0.731 | 0.6 | 0.267
19 | SW 900 | – | – | – | – | 0.17 | 0.157 | 0.19 | 0.169 | 0.679 | 0.521 | 0.487 | 0.423 | – | – | – | – | – | – | – | –
20 | LK-2 | – | – | – | – | 0.186 | 0.174 | 0.175 | 0.189 | 0.248 | 0.194 | 0.186 | 0.2 | 1.02 | 0.912 | 0.83 | 0.797 | 1.1 | 1.07 | 0.952 | 1.03
